Assays:
[1] = target: T1, Urotensin-2 receptor (Homo sapiens) (UniProt Q9UKP6); test: Bias factor, ratio of deltalog(Tau/KA) for agonist activity at human UT receptor expressed in HEK293 cells co-expressing Gq-polycistronic BRET biosensor assessed as induction of Gq activation by luminescence detection based BRET assay to deltalog(Tau/KA) for agonist activity at human UT receptor expressed in HEK293 cells co-expressing G12-polycistronic BRET biosensor assessed as induction of G12 activation by luminescence detection based BRET assay; format: functional, cell-based
T1 sequence (whole entry): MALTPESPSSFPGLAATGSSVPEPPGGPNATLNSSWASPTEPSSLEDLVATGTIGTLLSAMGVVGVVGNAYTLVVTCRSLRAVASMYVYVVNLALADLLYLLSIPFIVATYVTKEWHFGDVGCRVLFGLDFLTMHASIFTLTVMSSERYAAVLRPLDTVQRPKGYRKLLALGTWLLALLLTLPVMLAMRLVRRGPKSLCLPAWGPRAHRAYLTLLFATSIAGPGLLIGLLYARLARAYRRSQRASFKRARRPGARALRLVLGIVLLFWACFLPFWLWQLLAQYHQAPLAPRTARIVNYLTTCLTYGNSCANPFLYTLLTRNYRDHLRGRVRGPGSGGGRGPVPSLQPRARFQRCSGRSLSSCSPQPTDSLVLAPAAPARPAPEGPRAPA

[2] = target: T1, Urotensin-2 receptor (Homo sapiens); test: Agonist activity at human UT receptor expressed in HEK293 cells co-expressing G12-polycistronic BRET biosensor assessed as induction of G12 activation measured for 5 mins by luminescence detection based BRET assay relative to 10 uM URP; format: functional, cell-based
[3] = target: T2, Urotensin-2 receptor (Rattus norvegicus) (UniProt P49684); test: (§1) Antagonist activity at UT receptor in Sprague-Dawley rat thoracic aortic ring assessed as reduction in urotensin-2-induced contraction by measuring Emax for human urotensin-2-induced contraction at 1 uM pre-incubated for 30 mins before urotensin-2 stimulation relative to KCl-induced contraction (reference value: 101 +/- 4%); format: functional
T2 sequence (whole entry): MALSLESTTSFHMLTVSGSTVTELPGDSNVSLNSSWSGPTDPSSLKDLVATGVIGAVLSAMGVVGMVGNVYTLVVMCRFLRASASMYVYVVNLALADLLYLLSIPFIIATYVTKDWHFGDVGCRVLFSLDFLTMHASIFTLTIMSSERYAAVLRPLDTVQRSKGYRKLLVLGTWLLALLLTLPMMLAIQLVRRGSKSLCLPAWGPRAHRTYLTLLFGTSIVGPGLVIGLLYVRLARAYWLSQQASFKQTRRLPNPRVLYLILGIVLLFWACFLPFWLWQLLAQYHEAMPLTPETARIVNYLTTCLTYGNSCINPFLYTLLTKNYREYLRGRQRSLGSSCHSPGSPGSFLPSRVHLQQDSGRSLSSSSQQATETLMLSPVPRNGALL

[4] = target: T1, Urotensin-2 receptor (Homo sapiens); test: Selectivity index, change in deltalog(Tau/KA) for agonist activity at human UT receptor expressed in HEK293 cells co-expressing G12-polycistronic BRET biosensor assessed as induction of G12 activation by luminescence detection based BRET assay to deltalog(Tau/KA) for agonist activity at human UT receptor expressed in HEK293 cells co-expressing Gq-polycistronic BRET biosensor assessed as induction of Gq activation by luminescence detection based BRET assay; format: functional, cell-based
[5] = target: T1, Urotensin-2 receptor (Homo sapiens); test: Bias factor, ratio of deltalog(Tau/KA) for agonist activity at human UT receptor expressed in HEK293 cells co-expressing beta-arrestin1-polycistronic BRET biosensor assessed as induction of beta-arrestin1 recruitment by luminescence detection based BRET assay to deltalog(Tau/KA) for agonist activity at human UT receptor expressed in HEK293 cells co-expressing Gq-polycistronic BRET biosensor assessed as induction of Gq activation by luminescence detection based BRET assay; format: functional, cell-based
[6] = target: T1, Urotensin-2 receptor (Homo sapiens); test: Bias factor, ratio of deltalog(Tau/KA) for agonist activity at human UT receptor expressed in HEK293 cells co-expressing G12-polycistronic BRET biosensor assessed as induction of G12 activation by luminescence detection based BRET assay to deltalog(Tau/KA) for agonist activity at human UT receptor expressed in HEK293 cells co-expressing beta-arrestin1-polycistronic BRET biosensor assessed as induction of beta-arrestin1 recruitment by luminescence detection based BRET assay; format: functional, cell-based
[7] = target: T1, Urotensin-2 receptor (Homo sapiens); test: Selectivity index, change in deltalog(Tau/KA) for agonist activity at human UT receptor expressed in HEK293 cells co-expressing beta-arrestin1-polycistronic BRET biosensor assessed as induction of beta-arrestin1 recruitment by luminescence detection based BRET assay to deltalog(Tau/KA) for agonist activity at human UT receptor expressed in HEK293 cells co-expressing G12-polycistronic BRET biosensor assessed as induction of G12 activation by luminescence detection based BRET assay to; format: functional, cell-based
[8] = target: T1, Urotensin-2 receptor (Homo sapiens); test: Agonist activity at human UT receptor expressed in HEK293 cells co-expressing beta-arrestin1-polycistronic BRET biosensor assessed as induction of beta-arrestin1 recruitment measured for 5 mins by luminescence detection based BRET assay relative to 10 uM URP; format: functional, cell-based
[9] = target: T2, Urotensin-2 receptor (Rattus norvegicus); test: Agonist activity at UT receptor in Sprague-Dawley rat thoracic aortic ring assessed as induction of contraction relative to KCl-induced contraction; format: functional
[10] = target: T2, Urotensin-2 receptor (Rattus norvegicus); test: as §1, with “in URP-induced” for “in urotensin-2-induced”, “value: 107” for “value: 101”, “+/- 3%)” for “+/- 4%)”; format: functional
[11] = target: T1, Urotensin-2 receptor (Homo sapiens); test: Bias factor, ratio of deltalog(Tau/KA) for agonist activity at human UT receptor expressed in HEK293 cells co-expressing Gq-polycistronic BRET biosensor assessed as induction of Gq activation by luminescence detection based BRET assay to deltalog(Tau/KA) for agonist activity at human UT receptor expressed in HEK293 cells co-expressing beta-arrestin1-polycistronic BRET biosensor assessed as induction of beta-arrestin1 recruitment by luminescence detection based BRET assay; format: functional, cell-based
[12] = target: T1, Urotensin-2 receptor (Homo sapiens); test: Bias factor, ratio of deltalog(Tau/KA) for agonist activity at human UT receptor expressed in HEK293 cells co-expressing G12-polycistronic BRET biosensor assessed as induction of G12 activation by luminescence detection based BRET assay to deltalog(Tau/KA) for agonist activity at human UT receptor expressed in HEK293 cells co-expressing Gq-polycistronic BRET biosensor assessed as induction of Gq activation by luminescence detection based BRET assay; format: functional, cell-based
[13] = target: T1, Urotensin-2 receptor (Homo sapiens); test: Agonist activity at human UT receptor expressed in HEK293 cells co-expressing Gq-polycistronic BRET biosensor assessed as induction of Gq activation measured for 5 mins by luminescence detection based BRET assay relative to 10 uM URP; format: functional, cell-based
[14] = target: T1, Urotensin-2 receptor (Homo sapiens); test: Selectivity index, change in deltalog(Tau/KA) for agonist activity at human UT receptor expressed in HEK293 cells co-expressing Gq-polycistronic BRET biosensor assessed as induction of Gq activation by luminescence detection based BRET assay to deltalog(Tau/KA) for agonist activity at human UT receptor expressed in HEK293 cells co-expressing beta-arrestin1-polycistronic BRET biosensor assessed as induction of beta-arrestin1 recruitment by luminescence detection based BRET assay; format: functional, cell-based
[15] = target: T1, Urotensin-2 receptor (Homo sapiens); test: Bias factor, ratio of deltalog(Tau/KA) for agonist activity at human UT receptor expressed in HEK293 cells co-expressing beta-arrestin1-polycistronic BRET biosensor assessed as induction of beta-arrestin1 recruitment by luminescence detection based BRET assay to deltalog(Tau/KA) for agonist activity at human UT receptor expressed in HEK293 cells co-expressing G12-polycistronic BRET biosensor assessed as induction of G12 activation by luminescence detection based BRET assay; format: functional, cell-based
Urotensin-2 receptor [16] = target: T3, Urotensin-2 receptor (Rattus norvegicus, UniProt P49684); test: Agonist activity at UT receptor in Sprague-Dawley rat thoracic aortic ring assessed as induction of contraction; format: functional
T3 sequence (P49684 whole entry): T2 sequence (whole entry)

Urotensin-2 receptor [17] = target: T4, Urotensin-2 receptor (Homo sapiens, UniProt Q9UKP6); test: Displacement of [Na125I]-synthetic URP from human UT receptor expressed in HEK293 cell membranes incubated for 2 hrs by gamma-counting
T4 sequence (Q9UKP6 whole entry): T1 sequence (whole entry)

Urotensin-2 receptor [18] = target: T4, Urotensin-2 receptor; test: Agonist activity at human UT receptor expressed in HEK293 cells co-expressing beta-arrestin1-polycistronic BRET biosensor assessed as induction of beta-arrestin1 recruitment measured for 5 mins by luminescence detection based BRET assay; format: functional, cell-based
Urotensin-2 receptor [19] = target: T4, Urotensin-2 receptor; test: Agonist activity at human UT receptor expressed in HEK293 cells co-expressing Gq-polycistronic BRET biosensor assessed as induction of Gq activation measured for 5 mins by luminescence detection based BRET assay; format: functional, cell-based
Urotensin-2 receptor [20] = target: T4, Urotensin-2 receptor; test: Agonist activity at human UT receptor expressed in HEK293 cells co-expressing G12-polycistronic BRET biosensor assessed as induction of G12 activation measured for 5 mins by luminescence detection based BRET assay; format: functional, cell-based

Row | Compound | fold change (FC) [1] | Emax [2] [%] | Emax [3] [%] | deltalog(Tau/KA) [4] | fold change (FC) [5] | fold change (FC) [6] | deltadeltalog(Tau/KA) (beta-arrestin1 selectivity index) [7] | Emax [8] [%] | Emax [9] [%] | Emax [10] [%] | fold change (FC) [11] | fold change (FC) [12] | Emax [13] [%] | selectivity index, deltadeltalog(Tau/KA) [14] | fold change (FC) [15] | EC50 (Urotensin-2 receptor [16]) [nM] | IC50 (Urotensin-2 receptor [17]) [nM] | EC50 (Urotensin-2 receptor [18]) [nM] | EC50 (Urotensin-2 receptor [19]) [nM] | EC50 (Urotensin-2 receptor [20]) [nM]
1 | CC(C)[C@H](NC(=O)[C@@H]1CSSC[C@H](NC(=O)[C@@H](C)N)C(=O)N[C@@H](Cc2ccc(-c3ccccc3)cc2)C(=O)N[C@@H](Cc2c[nH]c3ccccc23)C(=O)N[C@@H](CCCCN)C(=O)N[C@@H](Cc2ccc(O)cc2)C(=O)N1)C(=O)O | 0 | 74 | 95 | 1.7 | 14.4 | 3.5 | -0.54 | 60 | 10 | 91 | 0.1 | 50 | 102 | -1.16 | 0.3 |  |  |  |  | 
2 | CC(C)[C@H](NC(=O)[C@@H]1CSSC[C@H](NC(=O)[C@H](C)N)C(=O)N[C@@H](Cc2ccccc2)C(=O)N[C@@H](Cc2c[nH]c3ccccc23)C(=O)N[C@@H](CCCCN)C(=O)N[C@@H](Cc2ccc(O)cc2)C(=O)N1)C(=O)O | 1 |  |  | 0 | 1 | 1 | 0 |  | 107 |  | 1 | 1 |  | 0 | 1 | 6.92 | 19.5 | 145 | 3.63 | 91.2
3 | CC(C)[C@H](NC(=O)[C@@H]1CSSC[C@H](NC(=O)[C@H](C)N)C(=O)N[C@H](Cc2ccc(-c3ccccc3)cc2)C(=O)N[C@@H](Cc2c[nH]c3ccccc23)C(=O)N[C@@H](CCCCN)C(=O)N[C@@H](Cc2ccc(O)cc2)C(=O)N1)C(=O)O |  |  |  |  |  |  |  |  |  |  |  |  |  |  |  | 1.91 | > 1000 | 1150 | 3550 | 661

Results, then the molecule that gave them:

Row | fold change (FC) [1] | Emax [2] [%] | Emax [3] [%] | deltalog(Tau/KA) [4] | fold change (FC) [5] | fold change (FC) [6] | deltadeltalog(Tau/KA) (beta-arrestin1 selectivity index) [7] | Emax [8] [%] | Emax [9] [%] | Emax [10] [%] | fold change (FC) [11] | fold change (FC) [12] | Emax [13] [%] | selectivity index, deltadeltalog(Tau/KA) [14] | fold change (FC) [15] | EC50 (Urotensin-2 receptor [16]) [nM] | IC50 (Urotensin-2 receptor [17]) [nM] | EC50 (Urotensin-2 receptor [18]) [nM] | EC50 (Urotensin-2 receptor [19]) [nM] | EC50 (Urotensin-2 receptor [20]) [nM] | Compound
4 | 0.1 | 68 | 52 | 0.89 | 8.6 | 0.9 | 0.04 | 99 | 20 | 100 | 0.1 | 7.8 | 87 | -0.94 | 1.1 |  |  |  |  |  | CC(C)[C@H](NC(=O)[C@@H]1CSSC[C@H](NC(=O)[C@@H](C)N)C(=O)N[C@@H](Cc2ccc(I)cc2)C(=O)N[C@@H](Cc2c[nH]c3ccccc23)C(=O)N[C@@H](CCCCN)C(=O)N[C@@H](Cc2ccc(O)cc2)C(=O)N1)C(=O)O
5 |  |  |  |  |  |  |  |  |  |  |  |  |  |  |  | > 10000 | > 1000 | 347 | 46.8 | 123 | CC(C)[C@H](NC(=O)[C@@H]1CSSC[C@H](NC(=O)[C@@H](N)CC(=O)O)C(=O)N[C@H](Cc2ccc(I)cc2)C(=O)N[C@@H](Cc2c[nH]c3ccccc23)C(=O)N[C@@H](CCCCN)C(=O)N[C@@H](Cc2ccc(O)cc2)C(=O)N1)C(=O)O

From ChEMBL document CHEMBL4196183, “Discovery of New Allosteric Modulators of the Urotensinergic System through Substitution of the Urotensin II-Related Peptide (URP) Phenylalanine Residue” (J Med Chem, 2018)
